From publication PMC6534241 (Drug Delivery, 2019)

How the values were obtained:
[1] = Solubility of drugs in oils/excipients; type: physicochemical; settings: shake flask, 25 °C, 48 h, HPLC, n = 3; Figure S1
[2] = ref Hu et al., 2012; cited from earlier work

## CC(=O)O[C@@]12CO[C@@H]1C[C@H](O)[C@@]1(C)C(=O)[C@H](O)C3=C(C)[C@@H](OC(=O)[C@H](O)[C@@H](NC(=O)OC(C)(C)C)c4ccccc4)C[C@@](O)([C@@H](OC(=O)c4ccccc4)[C@H]21)C3(C)C [DTX, Docetaxel]
[1]
  Solubility among the oils employed (ranking): highest solubility of 131.62 ± 17.68 in Capryol 90
[2]
  oral bioavailability of DTX: ~5%
